Earlier results in article PMC12051155 (Molecular Metabolism, 2025).

SMILES: CCCCCCCCCCCCCCCC(=O)N[C@@H](CCC(=O)NCCCC[C@H](NC(=O)[C@H](C)NC(=O)[C@H](C)NC(=O)[C@H](CCC(N)=O)NC(=O)CNC(=O)[C@H](CCC(=O)O)NC(=O)[C@H](CC(C)C)NC(=O)[C@H](Cc1ccc(O)cc1)NC(=O)[C@H](CO)NC(=O)[C@H](CO)NC(=O)[C@@H](NC(=O)[C@H](CC(=O)O)NC(=O)[C@H](CO)NC(=O)[C@@H](NC(=O)[C@H](Cc1ccccc1)NC(=O)[C@@H](NC(=O)CNC(=O)[C@H](CCC(=O)O)NC(=O)[C@H](C)NC(=O)[C@@H](N)Cc1cnc[nH]1)[C@@H](C)O)[C@@H](C)O)C(C)C)C(=O)N[C@@H](CCC(=O)O)C(=O)N[C@@H](Cc1ccccc1)C(=O)N[C@H](C(=O)N[C@@H](C)C(=O)N[C@@H](Cc1c[nH]c2ccccc12)C(=O)N[C@@H](CC(C)C)C(=O)N[C@H](C(=O)N[C@@H](CCCNC(=N)N)C(=O)NCC(=O)N[C@@H](CCCNC(=N)N)C(=O)NCC(=O)O)C(C)C)[C@@H](C)CC)C(=O)O [liraglutide]
- half-life in humans: 13 h
